Reference: ChEMBL document CHEMBL1150702, “3,3',5'-Tri-O-methylpiceatannol and 4,3',5'-tri-O-methylpiceatannol: improvements over piceatannol in bioactivity” (J Nat Prod, 1987)
In brackets after ≈: the same amount, converted by molar mass. Activity calls are given as the source filed them. The calls are words filed in the database; no cut-off is given here.

Experiments:
Artemia salina = experiment: Toxicity in Artemia salina; format: organism-based; settings: in vivo
[1] = Cytotoxicity against human 9KB cells; format: functional; settings: read-out: ED50 (the source's name)
[2] = In vivo cytotoxicity against mouse 3PS cells at 50 mg/kg relative to control; format: functional
[3] = Cytotoxicity against mouse 9PS cells; format: functional; settings: read-out: ED50 (the source's name)
[4] = tested on: Agrobacterium tumefaciens; experiment: Antitumor activity against Agrobacterium tumefaciens-induced crown gall tumor in potato tubers by potato disk test; format: functional
Mus musculus = experiment: In vivo cytotoxicity against mouse 3PS cells up to 200 mg/kg relative to control; format: functional, organism-based; design: dose 200 mg/kg

Row | Structure (SMILES) | LC50 (Artemia salina) [ppm] | EC50 [1] [mg/L] | T/C [2] [%] | EC50 [3] [mg/L] | inhibition (INH) [4] [%] | Activity (Mus musculus)
1 | COc1cc(C=O)ccc1O [VANILLIN] | 31 |  |  |  |  | 
2 | COc1cc(/C=C/c2ccc(OC)c(O)c2)cc(OC)c1 | 2.8 | < 0.01 | 119 | 0.1 (≈ 0.349 µM) | 22 | 
3 | COc1ccc(C=O)cc1O [ISOVANILLIN] | 31 |  |  |  |  | 
4 | COc1cc(/C=C/c2ccc(O)c(OC)c2)cc(OC)c1 | > 1000 | 0.25 (≈ 0.873 µM) |  |  | 19 | inactive
5 | Oc1cc(O)cc(/C=C/c2ccc(O)c(O)c2)c1 [PICEATANNOL] | 278 |  |  |  |  | 
